Several values for one entry are separate records, joined by “and”; a condition that tells them apart may be missing. Equal entries are not always repeated. Structures can show the parent of a compound that is named as a salt.
Tests used:
11 β-HSD type 2 = target: T1, 11 β-HSD type 2 (Rattus norvegicus, UniProt P50233); experiment: biochemical; details: rat kidney cytosol 150 μL, 60 min, 37° C., cortisol (F) to cortisone (E), vs control without inhibitor, means n=2; for inhibition at 10 µM: read-out: % […]→E ± SD, inhibitor 10 μM, read-out: % INHIBITION F→E ± SD; for % INHIBITION F→E ± SD: inhibitor 10 μM
T1 construct: Both the kidneys and livers were homogenised on ice in PBS- sucrose buffer; tissue Harlan Olac, Bicester, Oxon, UK (rats); host or cells: rat kidney homogenate supernatant (Wistar rat)
T1 sequence (P50233 1-400): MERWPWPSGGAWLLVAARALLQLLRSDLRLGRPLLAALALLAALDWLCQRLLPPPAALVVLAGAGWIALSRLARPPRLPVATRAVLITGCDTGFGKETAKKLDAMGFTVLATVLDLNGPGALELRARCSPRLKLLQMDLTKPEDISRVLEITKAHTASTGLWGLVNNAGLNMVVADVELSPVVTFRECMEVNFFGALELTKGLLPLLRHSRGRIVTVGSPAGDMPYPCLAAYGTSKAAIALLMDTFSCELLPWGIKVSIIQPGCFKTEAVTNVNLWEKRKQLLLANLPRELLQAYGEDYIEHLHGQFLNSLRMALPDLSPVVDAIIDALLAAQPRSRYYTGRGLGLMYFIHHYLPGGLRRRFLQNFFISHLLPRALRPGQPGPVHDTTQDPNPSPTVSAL
Protocol: Enzymes—Rat livers and rat kidneys were obtained from normal Wistar rats (Harlan Olac, Bicester, Oxon,UK). Both the kidneys and livers were homogenised on ice in PBS- sucrose buffer (1 g/10 ml) using an Ultra-Turrax. After the livers and kidneys were homogenised the homogenate was centrifuged for five minutes at 4000 rpm. The supernatant obtained was removed and stored in glass vials at −20° C. The amount of protein per μl of rat liver and kidney cytosol was determined using the Bradford method.
The same procedure was used for the 11 β-HSD type 2 assay, the conversion F to E, to determine the amount of rat kidney to be used and the incubation time.
In these assays the influence of different inhibitors on the 11 β-HSD activity both in reductive (type 1) and oxidative (type 2) directions were assessed. In the reductive direction E is the substrate and F the product and visa versa in the case of oxidation. The method described here is for the oxidative direction.
The substrate solution contained about 50,000 cpm/ml ^3H—F in PBS-sucrose and 0.5 pM F. 1 ml of the substrate solution was added to each tube, the inhibitors were also added, at a 10 μM concentration, to each tube except to the “control” and “blank” tubes. 150 μL was added to all tubes except to the blanks, this was done to correct for the amount of ^3H[…]. The tubes were incubated for 60 minutes in a mechanically shaken water bath at 37° C. […] After incubation 50 μL of recovery was added to correct for the losses made in the next steps, containing 5000 cpm/50 μL of ^14C-E and 50 μg/50 μL of unlabelled E (to visualise the spot on the TLC-plate). The aqueous mixture was then extracted with 4 ml of ether (2×30 sec cycle, vortex mix). After freezing the aqueous phase, the ether (upper) layer was decanted into smaller tubes and evaporated at 45° C. until completely dry. The residue was then re-dissolved in 6 drops of ether and transferred to a TLC-plate. The TLC-plate was developed in chloroform:methanol (9:1 v/v) solvent system, the TLC-plate ran for about 90 minutes until the solvent front had moved about 18 cm. The position of the product E was visualised under UV-light and cut out from the TLC-plate and put into scintillation vials. Radioactivity was eluted over 5 minutes with 0.5 ml methanol. 0.5 ml of PBS- sucrose and 10 ml of Ecoscint were then added and vortex mixed before counting in the scintillation counter. Before counting the samples, two total activity vials were prepared. These contained 0.5 ml of the substrate solution, 50 μL of the recovery, 0.5 ml of methanol and 10 ml of Ecoscint. These two total activity vials were needed to determine the amount of ^14C-E and ^3H—F added in the beginning to make the calculations.
To look at the percentage of inhibition four different concentrations, 1, 5, 10 and 20 μM, were used. The method for both the rat liver, type 1 the reductive, and rat kidney, type 2 the oxidative, stay the same throughout the entire experiment.
In this experiment the influence of different inhibitors on the conversion E to F and F to E was determined. The reason why inhibition in both directions was examined was to make a comparison between the inhibitors and which type of 11 β-HSD they inhibit more. Thirty-two compounds were screened for their ability to inhibit 11 β-HSD type 1 (E to F) and type 2 (F to E). […] The percent of inhibition was calculated as the percentage of decrease in radio labelled ^3H-E and ^3H—F of product formed, compared with the control activity (the tubes without an inhibitor in it). All the results calculated are means, n=2.

11 β-HSD type 1 = target: T2, 11 β-HSD type 1 (Rattus norvegicus, UniProt P16232); experiment: biochemical; type: biochemical; details: rat liver cytosol 25 μL, 90 min, 37° C., cortisone (E) to cortisol (F), vs control without inhibitor, means n=2; for inhibition at 10 µM: read-out: % […]→F ± SD, inhibitor 10 μM, read-out: % INHIBITION E→F ± SD
T2 construct: Both the kidneys and livers were homogenised on ice in PBS- sucrose buffer; tissue Harlan Olac, Bicester, Oxon, UK (rats); host or cells: rat liver homogenate supernatant (Wistar rat)
T2 sequence (P16232 whole entry): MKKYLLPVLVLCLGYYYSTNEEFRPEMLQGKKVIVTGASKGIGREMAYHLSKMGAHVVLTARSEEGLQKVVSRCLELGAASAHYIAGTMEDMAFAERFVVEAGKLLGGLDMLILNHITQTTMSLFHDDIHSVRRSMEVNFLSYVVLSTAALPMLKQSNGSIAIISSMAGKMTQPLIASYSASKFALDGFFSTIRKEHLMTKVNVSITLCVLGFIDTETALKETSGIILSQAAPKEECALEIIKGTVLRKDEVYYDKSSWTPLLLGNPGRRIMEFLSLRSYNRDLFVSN

melting point	SMILES	inhibition at 10 µM (11 β-HSD type 2)	inhibition at 10 µM (11 β-HSD type 1)	also measured
95 to 97 °C	CC(C)(C)OC(=O)[C@@]1(C)CC[C@]2(C)CC[C@]3(C)C(=CC(=O)C4[C@@]5(C)CC[C@@H](O)C(C)(C)C5CC[C@]43C)[C@@H]2C1 (stereo partly drawn)			
271 to 273 °C (dec.)	CC(C)OC(=O)[C@@]1(C)CC[C@]2(C)CC[C@]3(C)C(=CC(=O)C4[C@@]5(C)CC[C@H](O)C(C)(C)C5CC[C@]43C)[C@@H]2C1 (stereo partly drawn)			
234 to 236 °C	COC(=O)[C@@]1(C)CC[C@]2(C)CC[C@]3(C)C(=CCC4[C@@]5(C)CCC(=O)C(C)(C)C5CC[C@]43C)[C@@H]2C1 (stereo partly drawn)			
171 to 172 °C	CC1(C)C2CC[C@]3(C)C(C(=O)C=C4[C@@H]5C[C@@](C)(C(=O)OCCc6ccccc6)CC[C@]5(C)CC[C@]43C)[C@@]2(C)CC[C@@H]1O (stereo partly drawn)			
	CC1(C)C2CC[C@]3(C)[C@H](C(=O)C=C4[C@@H]5C[C@@](C)(C(=O)NC6CC6)CC[C@]5(C)CC[C@]43C)[C@@]2(C)CC[C@@H]1O (stereo partly drawn) [STX 370, 18β-Glycyrrhetinic Acid Cyclopropylamide]	102.5 ± 0.22%	89.6 ± 1.18%	
	C[C@]12CCC(=O)C=C1CC[C@@H]1[C@@H]2[C@@H](O)C[C@@]2(C)[C@H]1CC[C@]2(O)C(=O)CO [Cortisol, reference compound]	54.7 ± 4.24%	49.6 ± 5.87%	
	CC1(C)C2CC[C@]3(C)[C@H](C(=O)C=C4[C@@H]5C[C@@](C)(C(=O)NCc6ccccn6)CC[C@]5(C)CC[C@]43C)[C@@]2(C)CC[C@@H]1O (stereo partly drawn) [STX 371, 18β-Glycyrrhetinic Acid (pyridin-2-ylmethyl)-amide]	93 ± 2.75%	57.1 ± 5.6%	
	CC1(C(=O)O)CCC2(C)CCC3C(=CC(=O)C4C3(C)CCC3C(C)(C)C(OC(=O)CCC(=O)O)CCC34C)C2C1 (stereo not drawn) [Carbenoxalone, Carbenoxalone (disodium salt), reference compound]	100%	52.2 ± 4.8%	
	COC(=O)[C@@]1(C)CC[C@]2(C)CC[C@]3(C)C(=CC(=O)C4[C@@]5(C)CC[C@H](O)C(C)(C)C5CC[C@]43C)[C@@H]2C1 (stereo partly drawn) [STX195, 3β-Hydroxy-11-oxo-18β-glycyrrhetinic acid methyl ester]	105 ± 1.55%	85.4 ± 2.29%	
	CC1(C)C2CC[C@]3(C)C(C(=O)C=C4[C@@H]5C[C@@](C)(CO)CC[C@]5(C)CC[C@]43C)[C@@]2(C)CC[C@@H]1O (stereo partly drawn) [STX 349]	100 ± 0.49%	89.7 ± 4.9%	
201 to 203 °C	CC(C)OC(=O)[C@@]1(C)CC[C@]2(C)CC[C@]3(C)C(=CCC4[C@@]5(C)CC[C@H](O)C(C)(C)C5CC[C@]43C)[C@@H]2C1 (stereo partly drawn)			
114 to 116 °C	CC1(C)C2CC[C@]3(C)C(C(=O)C=C4[C@@H]5C[C@@](C)(C(=O)OCCCc6ccccc6)CC[C@]5(C)CC[C@]43C)[C@@]2(C)CC[C@H]1O (stereo partly drawn)			
153 to 155 °C	CC1(C)C2CC[C@]3(C)C(CC=C4[C@@H]5C[C@@](C)(C(=O)OCCc6ccccc6)CC[C@]5(C)CC[C@]43C)[C@@]2(C)CC[C@@H]1O (stereo partly drawn)			
133 to 134 °C	CC1(C)C2CC[C@]3(C)C(CC=C4[C@@H]5C[C@@](C)(C(=O)OCC6CCCCC6)CC[C@]5(C)CC[C@]43C)[C@@]2(C)CC[C@@H]1O (stereo partly drawn)			
	CC(=O)C1CCC2C3CCC4=CC(=O)CC[C@]4(C)C3CC[C@]12C (stereo partly drawn) [Progesterone, reference compound]	68.5 ± 0.707%	73%	
	COC(=O)[C@@]1(C)CC[C@]2(C)CC[C@]3(C)C(=CC(=O)[C@@H]4[C@@]5(C)CC[C@H](OCc6ccccc6)C(C)(C)C5CC[C@]43C)[C@@H]2C1 (stereo partly drawn) [STX 359]	17 ± 3.5%	17.8 ± 2.5%	
163 to 166 °C	CC1(C)C2CC[C@]3(C)C(CC=C4[C@@H]5C[C@@](C)(C(=O)OC6CCCCC6)CC[C@]5(C)CC[C@]43C)[C@@]2(C)CC[C@@H]1O (stereo partly drawn)			
	COC(=O)[C@@]1(C)CC[C@]2(C)CC[C@]3(C)C(=CCC4[C@@]5(C)CC[C@H](O)C(C)(C)C5CC[C@]43C)[C@@H]2C1 (stereo partly drawn) [STX 299]	19.5 ± 1.66%	20.2 ± 1.89%	
	CC1(C)CC[C@]2(C(=O)O)CC[C@]3(C)C(=CC[C@@H]4[C@@]5(C)CCC(=O)C(C)(C)[C@@H]5CC[C@]43C)[C@@H]2C1 [BLE99006, 3-Oxo-oleanoic acid]			% INHIBITION F→E ± SD (11 β-HSD type 2): 45.6 ± 11.030%; % INHIBITION E→F ± SD (11 β-HSD type 1; inhibitor 10 μM, 10 µM): 22% and 22.2 ± 0.354%
151 to 152 °C	CC1(C)C2CC[C@]3(C)C(CC=C4[C@@H]5C[C@@](C)(C(=O)OCc6ccccc6)CC[C@]5(C)CC[C@]43C)[C@@]2(C)CC[C@H]1O (stereo partly drawn)			
	CC(=O)O[C@H]1CC[C@@]2(C)C(CC[C@]3(C)[C@@H]2C(=O)C=C2[C@@H]4C[C@@](C)(C(=O)NCc5ccccc5)CC[C@]4(C)CC[C@]23C)C1(C)C (stereo partly drawn) [STX 367, 3β-Acetoxy-18β-Glycyrrhetinic Acid Benzylamide]	27.3 ± 2.99%	36.2 ± 3.69%	

SMILES	melting point	inhibition at 10 µM (11 β-HSD type 2)	inhibition at 10 µM (11 β-HSD type 1)	also measured
CC(=O)C1CCC2C3CCC4=CC(=O)CC[C@]4(C)C3C(=O)C[C@]12C (stereo partly drawn) [STX124, 11-Oxo-progesterone]	182 to 183 °C	92.6 ± 2.1%	100 ± 6.8%	
CCOC(=O)[C@@]1(C)CC[C@]2(C)CC[C@]3(C)C(=CC(=O)C4[C@@]5(C)CC[C@H](O)C(C)(C)C5CC[C@]43C)[C@@H]2C1 (stereo partly drawn) [STX196, 3β-hydroxy-11-oxo-18β-glycyrrhetinic acid ethyl ester]	93 to 94 °C	97.5 ± 1.37%	80.7 ± 2.14%	
COC(=O)[C@@]1(C)CC[C@]2(C)CC[C@]3(C)C(=CCC4[C@@]5(C)CC[C@H](O)C(C)(C)C5CC[C@]43C)[C@@H]2C1 (stereo partly drawn) [DGS01092 B]	135 to 137 °C			
CC(C)(C)OC(=O)[C@@]1(C)CC[C@]2(C)CC[C@]3(C)C(=CC(=O)C4[C@@]5(C)CC[C@H](O)C(C)(C)C5CC[C@]43C)[C@@H]2C1 (stereo partly drawn)	171 to 174 °C			
CC1(C)C2CC[C@]3(C)C(C(=O)C=C4[C@@H]5C[C@@](C)(C(=O)OCC6CCCCC6)CC[C@]5(C)CC[C@]43C)[C@@]2(C)CC[C@@H]1O (stereo partly drawn) [STX198, 3β-hydroxy-11-oxo-18β-glycyrrhetinic acid cyclohexylmethyl ester]	98 to 99 °C	33%	52.3 ± 1.25%	% INHIBITION F→E ± SD (11 β-HSD type 2; 10 µM): 33.1 ± 1.838%
COC(=O)[C@@]1(C)CC[C@]2(C)CC[C@]3(C)C(=CCC4[C@@]5(C)CC[C@H](O)C(C)(C)C5CC[C@]43C)[C@@H]2C1 (stereo partly drawn) [DG 383 B]	291 to 293 °C			
